Test results from patent US6890950B2, “Lapachone delivery systems, compositions and uses related thereto” (priority 2002, dated 2005).
“And” between values parts separate entries of the source, which are not always exact repeats. Identical values can stand only once.

Key:
PC-3 = assay: TUNEL apoptosis assay; type: cell-based, human; settings: 10 μM, 4h, TUNEL 48h
LNCaP = assay: TUNEL apoptosis assay; type: cell-based, human; settings: 10 μM, 4h
DU-145 = assay: TUNEL apoptosis assay; type: cell-based, human; settings: 10 μM, 4h, TUNEL 48h
A549 NSCLC cells = assay: survival and apoptosis (PARP cleavage) of NSCLC cells; type: cell-based, human; settings: 50 μM, 4 h
Text: NQO1-dependent apoptosis of A549 or CC-10 NSCLC cells by β-lap.

[1] = test system: NQO1-containing LNCaP clones; assay: colony forming ability assays; type: cell-based, human; settings: 4-h pulses
Procedure: FIG. 14. […] Colony forming ability assays (CFAs) were performed three times, each in triplicate.
LNCaP cells were transfected with either pcDNA3 empty vector or pcDNA3 containing full-length NQO1 cDNA.

[2] = association constant (Kc) from phase solubility diagrams; type: physicochemical; settings: for association constant Kc (phase solubility): inclusion complex with β-lap, PBS, 25° C., 1:1
Procedure: Solubility studies were performed by adding excess amount of β-lap to a series of PBS buffer that contain different concentrations of each CD molecule ranging from zero to its solubility limit (see Table 1 for the solubility limit of each CD molecule). A schematic diagram of the intermolecular interactions and their effect on solubility is provided as FIG. 1. The suspensions were stirred at 25° C. until dissolution equilibrium was reached. Then aliquots were withdrawn, filtered (Nylon syringe filter 0.2 μm pore size from Fisher Scientific (Pittsburg, Pa.)) and analyzed for β-lap concentrations by UV-V is spectrophotometry (λmax=257.2 nm, ε=109.6 ml/(mg·cm)). Phase solubility diagram for each CD was obtained by plotting the β-lap solubility at dissolution equilibrium as a function of the CD concentration. The association constant (Kc) [formula] for the complex formation was calculated based on Equation 1 assuming a 1:1 ratio of complex formation (T. Higuchi and K. A. Connors. Adv Anal Chem Instrum. 4:117-212 (1965)). ^1H NMR Study of CD.β-lap Inclusion Complexes

[3] = phase solubility studies of β-lap with cyclodextrins; type: physicochemical
Procedure: Solubility studies were performed by adding excess amount of β-lap to a series of PBS buffer that contain different concentrations of each CD molecule ranging from zero to its solubility limit (see Table 1 for the solubility limit of each CD molecule). A schematic diagram of the intermolecular interactions and their effect on solubility is provided as FIG. 1. The suspensions were stirred at 25° C. until dissolution equilibrium was reached. […] Phase solubility diagram for each CD was obtained by plotting the β-lap solubility at dissolution equilibrium as a function of the CD concentration.

Q: Which “Apoptosis (%) After Drug Treatment” value (PC-3; PC-3 + DC (50 μM dicoumarol)) does the source give for CC[C@@]1(O)C(=O)OCc2c1cc1n(c2=O)Cc2cc3ccccc3nc2-1 [Camptothecin, camptothecin] here?
A: 22 ± 7%

Q: What about the “Apoptosis (%) After Drug Treatment” value (PC-3; PC-3 + DVED) of the same compound?
A: 6 ± 5%

Q: And the “Apoptosis (%) After Drug Treatment” value (PC-3; PC-3)?
A: 23 ± 3%

Q: And the “Apoptosis (%) After Drug Treatment” value (LNCaP; LNCaP + DC (50 μM dicoumarol), TUNEL 48h)?
A: 33 ± 9%

Q: What about the “Apoptosis (%) After Drug Treatment” value (LNCaP; LNCaP + DVED, TUNEL 48h) of the same compound?
A: 10 ± 3%

Q: What about the “Apoptosis (%) After Drug Treatment” value (LNCaP; LNCaP, TUNEL 48h post-treatment) of the same compound?
A: 30 ± 5%

Q: What about the “Apoptosis (%) After Drug Treatment” value (DU-145; DU-145 + DC (50 μM dicoumarol)) of the same compound?
A: 43 ± 12%

Q: What about the “Apoptosis (%) After Drug Treatment” value (DU-145; DU-145 + DVED) of the same compound?
A: 10 ± 5%

Q: And the “Apoptosis (%) After Drug Treatment” value (DU-145; DU-145)?
A: 30 ± 06%

Q: For O=c1oc2ccccc2c(O)c1Cc1c(O)c2ccccc2oc1=O [dicoumarol], which “effect on cell growth (survival), alone” value (A549 NSCLC cells) is on record?
A: no effect

Q: With CC1=CC(=O)c2ccccc2C1=O [menadione] as the compound, how does the “sensitivity compared to NQO1-deficient LN-pcDNA3 vector alone cells” value [1] read?
A: resistant

Q: Which “association constant Kc (phase solubility)” value [2] does the source give for OC[C@H]1O[C@@H]2O[C@H]3[C@H](O)[C@@H](O)[C@@H](O[C@H]4[C@H](O)[C@@H](O)[C@@H](O[C@H]5[C@H](O)[C@@H](O)[C@@H](O[C@H]6[C@H](O)[C@@H](O)[C@@H](O[C@H]7[C@H](O)[C@@H](O)[C@@H](O[C@H]1[C@H](O)[C@H]2O)O[C@@H]7CO)O[C@@H]6CO)O[C@@H]5CO)O[C@@H]4CO)O[C@@H]3CO [α-CD] here?
A: 20.0 ± 0.7 M⁻¹ and 20 M⁻¹

Q: With OC[C@H]1O[C@@H]2O[C@H]3[C@H](O)[C@@H](O)[C@@H](O[C@H]4[C@H](O)[C@@H](O)[C@@H](O[C@H]5[C@H](O)[C@@H](O)[C@@H](O[C@H]6[C@H](O)[C@@H](O)[C@@H](O[C@H]7[C@H](O)[C@@H](O)[C@@H](O[C@H]8[C@H](O)[C@@H](O)[C@@H](O[C@H]9[C@H](O)[C@@H](O)[C@@H](O[C@H]1[C@H](O)[C@H]2O)O[C@@H]9CO)O[C@@H]8CO)O[C@@H]7CO)O[C@@H]6CO)O[C@@H]5CO)O[C@@H]4CO)O[C@@H]3CO [γ-CD] as the compound, how does the “Kc increase over α-CD (factor)” value [2] read?
A: 8

Q: What about the “association constant Kc (phase solubility)” value [2] of the same compound?
A: 160 ± 5 M⁻¹ and 160 M⁻¹

Q: Which “solubility (limit) of HPβ-CD” value [3] does the source give for hydroxypropyl β-cyclodextrin [HPβ-CD] here?
A: 360 mM
